HELM strings list units from the 5' end as sugar, base in round brackets, then linkage (d deoxyribose, r ribose, m 2'-O-methyl, p phosphodiester). Strings are as the collection lists them; they lack the last nucleoside at the 3' end of the tested compound. [moe] = 2'-O-(2-methoxyethyl) (MOE); [sp] = phosphorothioate linkage; [m5C] = 5-methylcytosine

This data set has as its target C9ORF72. Nature of the data set: mouse, dose not given. To be noted: ASO.
The substance “RNA1{[moe](T)[sp].[moe]([m5C])p.[moe](T)[sp].d(G)[sp].d(T)[sp].d([m5C])[sp].d(T)[sp].d(T)[sp].d(T)[sp].d(G)[sp].d(G)[sp].[moe](A)p.[moe](G)p.[moe]([m5C])p.[moe]([m5C])p.[moe]([m5C])[sp].[moe](A)}$$$$ (last 3' nucleoside missing)” registered a 3 h FOB score of 4 score 0-7.
The same measure for “RNA1{[moe](G)[sp].[moe]([m5C])p.[moe]([m5C])p.[moe](T)[sp].d(T)[sp].d(A)[sp].d([m5C])[sp].d(T)[sp].d([m5C])[sp].d(T)[sp].d(A)[sp].d(G)[sp].[moe](G)p.[moe](A)p.[moe]([m5C])p.[moe]([m5C])[sp].[moe](A)}$$$$ (last 3' nucleoside missing)”: 0.25 score 0-7; for “RNA1{[moe](T)[sp].[moe](G)p.[moe](G)p.[moe](T)p.d(T)[sp].d(A)[sp].d(A)[sp].d(T)[sp].d([m5C])[sp].d(T)[sp].d(T)[sp].d(T)[sp].d(A)[sp].d(T)[sp].[moe]([m5C])p.[moe](A)p.[moe](G)p.[moe](G)[sp].[moe](T)}$$$$ (last 3' nucleoside missing)”: 1 score 0-7; for “RNA1{[moe]([m5C])[sp].[moe](G)p.[moe](G)p.[moe]([m5C])p.d([m5C])[sp].d([m5C])[sp].d([m5C])[sp].d(T)[sp].d(A)[sp].d(G)[sp].d([m5C])[sp].d(G)[sp].d([m5C])[sp].[moe](G)p.[moe]([m5C])p.[moe](G)p.[moe](A)[sp].[moe]([m5C])}$$$$ (last 3' nucleoside missing)”: 5.25 score 0-7.
“RNA1{[moe]([m5C])[sp].[moe]([m5C])p.[moe]([m5C])p.[moe]([m5C])p.[moe](T)p.[moe](A)p.d(G)[sp].d([m5C])[sp].d(G)[sp].d([m5C])[sp].d(G)[sp].d([m5C])[sp].d(G)[sp].d(A)[sp].d([m5C])[sp].d(T)[sp].[moe]([m5C])p.[moe]([m5C])[sp].[moe](T)}$$$$ (last 3' nucleoside missing)” registered a 3 h FOB score of 6 score 0-7.
Turning to “RNA1{[moe]([m5C])[sp].[moe](G)p.[moe](G)p.[moe]([m5C])p.d([m5C])[sp].d([m5C])[sp].d([m5C])[sp].d(T)[sp].d(A)[sp].d(G)[sp].d([m5C])[sp].d(G)[sp].d([m5C])[sp].d(G)[sp].[moe]([m5C])p.[moe](G)p.[moe](A)p.[moe]([m5C])[sp].[moe](T)}$$$$ (last 3' nucleoside missing)”, the 3 h FOB score is 1.75 score 0-7.
In turn, “RNA1{[moe]([m5C])[sp].[moe](G)p.[moe](G)p.[moe]([m5C])[sp].d([m5C])[sp].d([m5C])[sp].d([m5C])[sp].d(T)[sp].d(A)[sp].d(G)[sp].d([m5C])[sp].d(G)[sp].[moe]([m5C])p.[moe](G)p.[moe]([m5C])p.[moe](G)[sp].[moe](A)}$$$$ (last 3' nucleoside missing)” registered a 3 h FOB score of 7 score 0-7.
With “RNA1{[moe](G)[sp].[moe]([m5C])[sp].[moe]([m5C])[sp].[moe](T)[sp].[moe](T)[sp].d(A)[sp].d([m5C])[sp].d(T)[sp].d([m5C])[sp].d(T)[sp].d(A)[sp].d(G)[sp].d(G)[sp].d(A)[sp].d([m5C])[sp].[moe]([m5C])[sp].[moe](A)[sp].[moe](A)[sp].[moe](G)}$$$$ (last 3' nucleoside missing)”, the 3 h FOB score stood at 7 score 0-7.
“RNA1{[moe](A)[sp].[moe](G)p.[moe](G)p.[moe]([m5C])p.[moe](T)p.d(G)[sp].d([m5C])[sp].d(G)[sp].d(G)[sp].d(T)[sp].d(T)[sp].d(G)[sp].d(T)[sp].d(T)[sp].[moe](T)p.[moe]([m5C])p.[moe]([m5C])[sp].[moe]([m5C])}$$$$ (last 3' nucleoside missing)”: the 3 h FOB score was 6.25 score 0-7.
The same measure for “RNA1{[moe](T)[sp].[moe](A)[sp].[moe]([m5C])[sp].[moe](A)[sp].[moe](G)[sp].d(G)[sp].d([m5C])[sp].d(T)[sp].d(G)[sp].d([m5C])[sp].d(G)[sp].d(G)[sp].d(T)[sp].d(T)[sp].d(G)[sp].[moe](T)[sp].[moe](T)[sp].[moe](T)[sp].[moe]([m5C])}$$$$ (last 3' nucleoside missing)”: 7 score 0-7; for “RNA1{[moe](G)[sp].[moe](G)p.[moe](T)p.d(T)[sp].d(A)[sp].d(A)[sp].d(T)[sp].d([m5C])[sp].d(T)[sp].d(T)[sp].d(T)[sp].d(A)[sp].d(T)[sp].[moe]([m5C])p.[moe](A)p.[moe](G)p.[moe](G)p.[moe](T)[sp].[moe]([m5C])}$$$$ (last 3' nucleoside missing)”: 0 score 0-7.
The same measure for “RNA1{[moe]([m5C])[sp].[moe](A)p.[moe](G)p.[moe](G)p.[moe]([m5C])p.[moe](T)[sp].d(G)[sp].d([m5C])[sp].d(G)[sp].d(G)[sp].d(T)[sp].d(T)[sp].d(G)[sp].d(T)[sp].[moe](T)p.[moe](T)[sp].[moe]([m5C])}$$$$ (last 3' nucleoside missing)”: 4.5 score 0-7; for “RNA1{[moe](A)[sp].[moe](G)p.[moe](G)p.[moe]([m5C])p.[moe](T)p.[moe](G)[sp].d([m5C])[sp].d(G)[sp].d(G)[sp].d(T)[sp].d(T)[sp].d(G)[sp].d(T)[sp].d(T)[sp].[moe](T)p.[moe]([m5C])[sp].[moe]([m5C])}$$$$ (last 3' nucleoside missing)”: 5.25 score 0-7; for “RNA1{[moe](G)[sp].[moe](G)p.[moe](T)p.[moe](T)p.[moe](A)p.[moe](A)p.[moe](T)p.d([m5C])[sp].d(T)[sp].d(T)[sp].d(T)[sp].d(A)[sp].d(T)[sp].d([m5C])[sp].d(A)[sp].d(G)[sp].d(G)[sp].[moe](T)[sp].[moe]([m5C])}$$$$ (last 3' nucleoside missing)”: 5.75 score 0-7.
“RNA1{[moe]([m5C])[sp].[moe]([m5C])p.[moe](G)p.[moe](G)p.d([m5C])[sp].d([m5C])[sp].d([m5C])[sp].d([m5C])[sp].d(T)[sp].d(A)[sp].d(G)[sp].d([m5C])[sp].d(G)[sp].[moe]([m5C])p.[moe](G)p.[moe]([m5C])p.[moe](G)[sp].[moe](A)}$$$$ (last 3' nucleoside missing)” displayed a 3 h FOB score of 6 score 0-7.
The same measure for “RNA1{[moe](T)[sp].[moe](G)p.[moe](G)p.[moe](T)[sp].d(T)[sp].d(A)[sp].d(A)[sp].d(T)[sp].d([m5C])[sp].d(T)[sp].d(T)[sp].d(T)[sp].[moe](A)p.[moe](T)p.[moe]([m5C])p.[moe](A)[sp].[moe](G)}$$$$ (last 3' nucleoside missing)”: 3.25 score 0-7.
The same measure for “RNA1{[moe](G)[sp].[moe]([m5C])p.[moe]([m5C])p.[moe]([m5C])p.[moe]([m5C])p.[moe](T)p.d(A)[sp].d(G)[sp].d([m5C])[sp].d(G)[sp].d([m5C])[sp].d(G)[sp].d([m5C])[sp].d(G)[sp].d(A)[sp].d([m5C])[sp].[moe](T)p.[moe]([m5C])[sp].[moe]([m5C])}$$$$ (last 3' nucleoside missing)”: 0 score 0-7; for “RNA1{[moe](G)[sp].[moe](G)p.[moe]([m5C])p.[moe]([m5C])p.d([m5C])[sp].d([m5C])[sp].d(T)[sp].d(A)[sp].d(G)[sp].d([m5C])[sp].d(G)[sp].d([m5C])[sp].d(G)[sp].d([m5C])[sp].[moe](G)p.[moe](A)p.[moe]([m5C])p.[moe](T)[sp].[moe]([m5C])}$$$$ (last 3' nucleoside missing)”: 1.5 score 0-7.
On to “RNA1{[moe](G)[sp].[moe]([m5C])p.[moe]([m5C])p.[moe]([m5C])p.[moe]([m5C])p.[moe](T)[sp].d(A)[sp].d(G)[sp].d([m5C])[sp].d(G)[sp].d([m5C])[sp].d(G)[sp].d([m5C])[sp].d(G)[sp].[moe](A)p.[moe]([m5C])[sp].[moe](T)}$$$$ (last 3' nucleoside missing)”, for which the 3 h FOB score worked out at 1 score 0-7.
The same measure for “RNA1{[moe]([m5C])[sp].[moe](A)p.[moe](G)p.[moe](G)p.d([m5C])[sp].d(T)[sp].d(G)[sp].d([m5C])[sp].d(G)[sp].d(G)[sp].d(T)[sp].d(T)[sp].d(G)[sp].[moe](T)p.[moe](T)p.[moe](T)p.[moe]([m5C])[sp].[moe]([m5C])}$$$$ (last 3' nucleoside missing)”: 4 score 0-7; for “RNA1{[moe]([m5C])[sp].[moe](T)p.[moe](G)p.[moe](G)p.[moe](T)p.[moe](T)p.[moe](A)p.d(A)[sp].d(T)[sp].d([m5C])[sp].d(T)[sp].d(T)[sp].d(T)[sp].d(A)[sp].d(T)[sp].d([m5C])[sp].d(A)[sp].[moe](G)[sp].[moe](G)}$$$$ (last 3' nucleoside missing)”: 2.25 score 0-7; for “RNA1{[moe](G)[sp].[moe]([m5C])p.[moe]([m5C])p.[moe](T)p.[moe](T)p.[moe](A)p.[moe]([m5C])[sp].d(T)[sp].d([m5C])[sp].d(T)[sp].d(A)[sp].d(G)[sp].d(G)[sp].d(A)[sp].d([m5C])[sp].[moe]([m5C])[sp].[moe](A)}$$$$ (last 3' nucleoside missing)”: 2.5 score 0-7.
The same measure for “RNA1{[moe](T)[sp].[moe]([m5C])p.[moe](T)p.[moe](G)p.d(T)[sp].d([m5C])[sp].d(T)[sp].d(T)[sp].d(T)[sp].d(G)[sp].d(G)[sp].d(A)[sp].d(G)[sp].d([m5C])[sp].[moe]([m5C])p.[moe]([m5C])p.[moe](A)p.[moe](A)[sp].[moe](A)}$$$$ (last 3' nucleoside missing)”: 6.75 score 0-7; for “RNA1{[moe]([m5C])[sp].[moe](A)p.[moe](G)p.[moe](G)p.d([m5C])[sp].d(T)[sp].d(G)[sp].d([m5C])[sp].d(G)[sp].d(G)[sp].d(T)[sp].d(T)[sp].d(G)[sp].d(T)[sp].[moe](T)p.[moe](T)p.[moe]([m5C])p.[moe]([m5C])[sp].[moe]([m5C])}$$$$ (last 3' nucleoside missing)”: 4.75 score 0-7.
The same measure for “RNA1{[moe](G)[sp].[moe]([m5C])p.[moe](T)p.[moe](G)p.[moe]([m5C])p.[moe](G)[sp].d(G)[sp].d(T)[sp].d(T)[sp].d(G)[sp].d(T)[sp].d(T)[sp].d(T)[sp].d([m5C])[sp].[moe]([m5C])p.[moe]([m5C])[sp].[moe](T)}$$$$ (last 3' nucleoside missing)”: 5.5 score 0-7.

Source of the values: the OligoGym collection.
